In PubChem BioAssay (NCI) one finds TGI data, which are given here for twelve compounds.

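Results reflect a 48-hour exposure of cells in 96-well plates to compound at five concentrations. Definition used: TGI = concentration required for complete inhibition of growth.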

What all share (experiment): DTP human tumour cell line panel, 48 h
In assay [1] the test system is PC-3 prostate.
Assay [2] deals with MDA-MB-231 breast.
For assay [3], the system named is SNB-19 CNS.
Assay [4] concerns ACHN renal.
The test system of assay [5] is OVCAR-3 ovarian.
Assay [6] deals with A549 NSCLC.
The subject of assay [7] is KM12 colon.
The subject of assay [8] is SF-268 CNS.
Assay [9] has as its system CAKI-1 renal.

One may read the TGI as the concentration at which net growth stops. Higher therefore signals lower sensitivity of the cells. For `O=C(OCC(Cl)(Cl)Cl)N1CC[C@H](C2CCCCC2)C1`, the total growth inhibition concentration (TGI) was determined as 48.7 µM in assay [1]; 96.2 µM in assay [2]; 37.5 µM in assay [3]; 36.7 µM in assay [4]; 30.3 µM in assay [5]; 36.1 µM in assay [6]. The TGI in [7] came out at 31.7 µM; in [8], 36.3 µM; in assay [9] it was 88.9 µM.

Turning to `Nc1ncnc2c1ccn2C/C=C/CO`, the TGI in assay [1], in assay [2], in assay [3], in [4], in [5] and in assay [6] was above 100 µM in each case. The TGI in [7], in assay [8] and in [9] was above 100 µM each time.

With `COc1cc2c(cc1OCCCN1C(=O)c3cccc4cccc(c34)C1=O)N=C[C@@H]1CCCN1C2=O`, the TGI was above 100 µM in [1]; above 100 µM in assay [2]; above 100 µM in assay [3]; above 63.4 µM in assay [4]; above 85.1 µM in [5]; above 100 µM in assay [6]. Moreover, the concentration for total growth inhibition (TGI) in [7] is above 49.8 µM; in [8] it was above 100 µM; in [9] it was above 58.1 µM.

Take `Cc1ccc2c(c1)c1ccc3c(c1n2C)C(=O)C=CC3=O`: the total growth inhibition concentration (TGI) in assay [1] is above 9.27 µM; in [2], 6.01 µM; in assay [3], above 10 µM; in [4], 3.02 µM; in [5] it was 4.53 µM; in [6] it was above 10 µM. For the same compound, the concentration for total growth inhibition (TGI) in [7] is above 10 µM; in assay [8], above 10 µM; in assay [9], 4.17 µM.

Consider `O=C(c1ccccc1)c1ccc2c(c1)NC(=O)c1ccccc1SSc1ccccc1C(=O)N2`, for which the TGI in assay [1], in [2], in [3], in assay [4], in [5] and in assay [6] was above 100 µM in each case. The TGI in assay [7], in assay [8] and in assay [9] was above 100 µM each time.

In the case of `Cc1c2c(c(C)n1-c1ccccc1)C(=O)N(CCN1CCN(c3cccc(C(F)(F)F)c3)CC1)C2=O`, the TGI in assay [1], in assay [2], in assay [3], in assay [4], in assay [5] and in assay [6] was above 100 µM throughout. Moreover, the concentration for total growth inhibition (TGI) in assay [7], in assay [8] and in [9] was above 100 µM throughout.

`COC(=O)c1ccccc1CC1Cc2cccc(C)c2C1=O` (stereo not drawn): the TGI in [1] is 77.8 µM; in assay [2], above 100 µM; in [3], above 100 µM; in assay [4] it was above 100 µM; in assay [5], above 100 µM; in [6], above 100 µM. For the same compound, the TGI in assay [7] is 66.6 µM; in assay [8], above 100 µM; in [9], above 100 µM.

In the case of `O=[N+]([O-])c1cc2oc(CSc3ccccc3)nc2cc1Cl`, the TGI in [1] is above 100 µM; in assay [2], 76.9 µM; in assay [3] it was above 100 µM; in assay [4], above 100 µM; in assay [5], 73.9 µM; in [6] it was above 100 µM. Further, the TGI in assay [7], in assay [8] and in assay [9] was above 100 µM each time.

`CSc1nc2c(c(N(C)C)n1)C(O)n1c(nc3ccccc31)S2` (stereo not drawn): the concentration for total growth inhibition (TGI) was above 100 µM in assay [1]; above 100 µM in assay [2]; above 77.9 µM in [3]; above 100 µM in assay [4]; above 63.4 µM in assay [5]; above 100 µM in assay [6]. Moreover, the total growth inhibition concentration (TGI) in [7], in assay [8] and in assay [9] was above 100 µM in each case.

For `Cc1nc2ccccc2c(-n2cccn2)c1CCn1cccn1`, the concentration for total growth inhibition (TGI) in assay [1], in assay [2], in assay [3], in assay [4], in [5] and in [6] was above 100 µM each time. In addition, the TGI in assay [7], in assay [8] and in assay [9] was above 100 µM throughout.

In the case of `Clc1ccc(C=NC23CC4CC(CC(C4)C2)C3)c(Cl)c1`, the concentration for total growth inhibition (TGI) in [1], in assay [2], in assay [3], in assay [4], in assay [5] and in assay [6] was above 10 µM in each case. For the same compound, the TGI in [7], in assay [8] and in [9] was above 10 µM each time.

Turning to `CC(C)N1CCN(c2ccc(OCC3COC(Cn4cncn4)(c4ccc(Cl)cc4Cl)O3)cc2)CC1` (stereo not drawn), the TGI in assay [1] is 35.1 µM; in assay [2] it was 28.5 µM; in [3], above 57.4 µM; in assay [4], 47.1 µM; in [5] it was 31 µM; in assay [6], above 52 µM. Moreover, the figures for the total growth inhibition concentration (TGI) in assay [7], in assay [8] and in [9] were 28.8 µM, 28.8 µM and 40.3 µM, respectively.
